Like-named read-outs stand apart in the source and are kept apart here. Each block holds one compound with its values, some of them ahead of it.
Columns and labels:
[1] = system: systemic MV4-11 engraftment model
Protocol: After establishing a systemic MV4-11 engraftment model that more accurately depicts the disease in humans, Aza-T-dCyd was administered orally at doses ranging from 0.4 to 1.5 mg/kg.
After establishment of the systemic MV4-11 engraftment model, Aza-T-dCyd was administered orally at doses of 1.5, 2.0, and 2.5 mg/kg (using the standard dose/dosing schedule used in preclinical trials for decitabine/azacytidine).
After establishing a systemic MV4-11 engraftment model, blood was collected at pre-treatment (Day 21) and mid-treatment (Day 36, 56, 77) in the Aza-T-dCyd and Decitabine/Azacytidine groups and analyzed for complete blood count (CBC) values.
To determine whether the anti-cancer efficacy in the systemic MV4-11 engraftment model was directly related to the ability to suppress the number of cancer cells, we performed experiments to measure body luminescence after systemic engraftment using the luciferase-transfected Mv4-11 cell line.

[2] = system: MV4-11 AML cells; test: MV4-11 AML xenograft implanted subcutaneously, combination with venetoclax; format: in vivo, mice; conditions: administered alone (Aza-T-dCyd 2 mpk), FIGS. 30 and 31
Protocol: After establishing a xenograft systemic AML model in which MV4-11 AML cells were implanted subcutaneously in mice, Aza-T-dCyd alone at 2.0 mpk for 1 cycle (5 days on, 2 days off, 5 days on, 9 days off) was administered (PO) or Aza-T-dCyd 0.5, 1.0 or 2.0 mpk plus venetoclax 50 mpk or 100 mpk administered orally (PO) for 1 cycle (venetoclax on for 5 days, off for 2 days, repeated for 3 weeks). Anti-cancer efficacy was determined in disease models in which azacitidine 5.0 mpk was administered intraperitoneally (IP) alone or in combination with optimal dose of azacitidine (2.5 mpk) and venetoclax 50 mpk or 100 mpk as a control.

[3] = target: DNMT3B (Homo sapiens, UniProt Q9UBC3); test: DNMT3B expression in HL-60 xenograft tumor samples; format: in vivo, mice; set-up: tumor samples were collected on day 11 to determine the expression of DNMT1, DNMT3A, and DNMT3B; from tissue; host or cells: HL-60 xenograft tumour samples (mouse host); conditions: 2 mg/kg NTX-301 or 0.75 mg/kg Decitabine intraperitoneally, day 11
Protocol: (§1) As the efficacy of DNMT1 inhibitors correlates with their selective profile for targeting DNMT1 and the de novo methyltransferases DNMT3A and DNMT3B, we confirmed the expression of DNMT1, DNMT3A, and DNMT3B in the Aza-T-dCyd and Decitabine treated groups in this xenograft model (FIG. 27).
(§2) In the HL-60 xenograft mice model, 2 mg/kg of NTX-301 (Aza-T-dCyd) or 0.75 mg/kg of Decitabine were administered intraperitoneally, and then tumor samples were collected on day 11 to determine the expression of DNMT1, DNMT3A, and DNMT3B. […] On the other hand, the expression levels of DNMT3A and DNMT3B were different in the Aza-T-dCyd and Decitabine treatment groups.

[4] = target: T1, DNMT1 (Homo sapiens, UniProt P26358); test: DNMT1 expression in HL-60 xenograft tumor samples; format: in vivo, mice; set-up: tumor samples were collected on day 11 to determine the expression of DNMT1, DNMT3A, and DNMT3B; from tissue; host or cells: HL-60 xenograft tumour samples (mouse host); conditions: 2 mg/kg NTX-301 or 0.75 mg/kg Decitabine intraperitoneally, day 11
T1 sequence (P26358 whole entry): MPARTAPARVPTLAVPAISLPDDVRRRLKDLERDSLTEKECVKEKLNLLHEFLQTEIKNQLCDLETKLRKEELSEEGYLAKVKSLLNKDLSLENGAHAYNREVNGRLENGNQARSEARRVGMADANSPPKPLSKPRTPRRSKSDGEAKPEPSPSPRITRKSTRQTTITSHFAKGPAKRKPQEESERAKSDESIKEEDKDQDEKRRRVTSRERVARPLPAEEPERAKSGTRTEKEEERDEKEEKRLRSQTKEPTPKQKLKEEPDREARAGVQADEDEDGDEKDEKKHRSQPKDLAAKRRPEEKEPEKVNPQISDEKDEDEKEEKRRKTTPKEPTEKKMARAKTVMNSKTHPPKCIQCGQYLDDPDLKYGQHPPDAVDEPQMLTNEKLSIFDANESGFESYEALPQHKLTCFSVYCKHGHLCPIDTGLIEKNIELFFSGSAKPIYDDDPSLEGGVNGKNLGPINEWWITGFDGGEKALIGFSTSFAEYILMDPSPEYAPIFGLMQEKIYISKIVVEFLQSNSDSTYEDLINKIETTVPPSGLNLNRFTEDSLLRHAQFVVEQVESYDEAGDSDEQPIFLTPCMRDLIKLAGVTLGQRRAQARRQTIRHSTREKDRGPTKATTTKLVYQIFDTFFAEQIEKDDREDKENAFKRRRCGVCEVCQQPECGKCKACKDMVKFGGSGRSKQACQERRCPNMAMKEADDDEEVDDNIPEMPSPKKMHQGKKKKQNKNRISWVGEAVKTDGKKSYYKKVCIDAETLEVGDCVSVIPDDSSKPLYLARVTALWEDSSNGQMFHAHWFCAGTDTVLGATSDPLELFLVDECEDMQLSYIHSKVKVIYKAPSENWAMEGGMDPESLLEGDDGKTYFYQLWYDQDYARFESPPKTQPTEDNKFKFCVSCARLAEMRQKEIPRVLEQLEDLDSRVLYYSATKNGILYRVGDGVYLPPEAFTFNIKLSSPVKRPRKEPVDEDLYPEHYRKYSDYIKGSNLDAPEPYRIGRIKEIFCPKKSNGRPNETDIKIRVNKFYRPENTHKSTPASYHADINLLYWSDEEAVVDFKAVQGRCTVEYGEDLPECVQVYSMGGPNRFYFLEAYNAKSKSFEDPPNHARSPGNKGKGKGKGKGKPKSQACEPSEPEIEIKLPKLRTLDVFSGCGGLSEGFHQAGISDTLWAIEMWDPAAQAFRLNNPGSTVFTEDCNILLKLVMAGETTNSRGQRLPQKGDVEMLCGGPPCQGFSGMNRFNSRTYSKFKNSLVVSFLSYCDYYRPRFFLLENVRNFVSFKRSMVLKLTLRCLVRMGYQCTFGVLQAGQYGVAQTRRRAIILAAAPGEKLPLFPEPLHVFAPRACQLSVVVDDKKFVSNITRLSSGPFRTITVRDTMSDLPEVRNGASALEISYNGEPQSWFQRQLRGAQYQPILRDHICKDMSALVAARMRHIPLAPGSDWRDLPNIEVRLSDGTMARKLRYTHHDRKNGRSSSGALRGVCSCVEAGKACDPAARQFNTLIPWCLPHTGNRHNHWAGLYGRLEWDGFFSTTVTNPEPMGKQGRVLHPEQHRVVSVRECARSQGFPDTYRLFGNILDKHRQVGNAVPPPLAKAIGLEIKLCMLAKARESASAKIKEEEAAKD
Protocol: as §1, §2

[5] = target: T1, DNMT1; test: DNMT1 protein Western blotting in cancer cell lines; format: cell-based; set-up: endogenous in cells; host or cells: MV4-11, KG-1a, CCRF-CEM, NCI-H23, HCT-116, IGROV-1 (also HL-60, THP-1)
[6] = system: leukemia cell lines; test: Growth-inhibitory activity on leukemia cell lines (GI50); format: cell-based; conditions: 72 h, read-out: GI50 values (half maximal growth inhibitory concentrations)
Protocol: The growth-inhibitory activity of Aza-T-dCyd, a DNMT1 inhibitor, was measured in leukemia cell lines to determine its inhibitory effect on cell proliferation.
The growth-inhibitory activity of DNMT1 inhibitors, Aza-T-dCyd and Decitabine, was measured on leukemia cell lines to determine their effect on cell proliferation.

[7] = system: HCT-116 (colorectal); test: HCT-116 (colorectal) xenograft model; format: in vivo, Mouse; conditions: colorectal (HCT-116) xenograft, Decitabine comparator, dose not given
Protocol: The efficacy of Aza-T-dCyd was confirmed by tumor growth curves after administration of Aza-T-dCyd in various solid cancer xenograft models. Aza-T-dCyd at a dose of 1~2 mg/kg was administered repeatedly for 2~6 cycles in QD×5, showing excellent anti-cancer effects (evidenced by test/control (T/C) value≤40%).

[8] = system: BL0382PD PDX (bladder); format: in vivo, Mouse; conditions: NSG, mouse, in vivo, 0.75 mg/kg, 2 cycles
Description: The efficacy of Aza-T-dCyd was confirmed by tumor growth curves after administration of Aza-T-dCyd in various solid cancer xenograft models. […]

[9] = system: p15 tumor suppressor gene; test: p15 tumor suppressor gene re-expression (RT-PCR) in MV4-11 cells; format: cell-based; conditions: MV4-11 cell line
Protocol: Therefore, to determine the re-expression of tumor suppressor genes through epigenetic regulation mechanisms induced by DNMT1 inhibition upon Aza-T-dCyd (NTX-301) treatment, MV4-11 cells, an AML cell line, were treated with Aza-T-dCyd at different concentrations. […] Table 1 below compares the degree of p15 mRNA re-expression after DNMT1 inhibitor (Aza-T-dCyd/Decitabine) treatment in the MV4-11 cell line, an AML cell (fold increase from 0 nM is shown).

[10] = system: HL-60 AML xenograft; test: HL-60 AML xenograft model; format: in vivo
[11] = system: DNA methylation; test: DNA demethylation; format: cell-based
Description: Through DNA demethylation caused by Aza-T-dCyd treatment, various tumor suppressor genes and genes required for differentiation induction of AML cells were reactivated, and the reactivated expression patterns of these genes were confirmed by RNA-seq data analysis (FIG. 24).

[12] = system: cytidine deaminase; test: Degradation by cytidine deaminase; conditions: compared to Decitabine/Azacytidine, oral administration
Description: Decitabine/Azacytidine is susceptible to metabolism by cytidine deaminases in the body, resulting in an unstable PK profile that limits its efficacy.

SMILES: Nc1ncn([C@@H]2O[C@H](CO)[C@@H](O)[C@H]2O)c(=O)n1 [Azacytidine, reference compound]
complete blood count (WBC, RBC, Neutrophil, Platelet) ([1]; mouse, in vivo): severe neutropenia

SMILES: CC1(C)CCC(CN2CCN(c3ccc(C(=O)NS(=O)(=O)c4ccc(NCC5CCOCC5)c([N+](=O)[O-])c4)c(Oc4cnc5[nH]ccc5c4)c3)CC2)=C(c2ccc(Cl)cc2)C1 [Venetoclax]
anti-cancer effect (tumor volume), single agent [2]: limited tumor regression

SMILES: Nc1ncn([C@H]2C[C@H](O)[C@@H](CO)O2)c(=O)n1 [Decitabine, 5-aza-2′-deoxycytidine]
DNMT3B expression level in tumor samples [3]: no effect was observed | DNMT1 expression in tumor samples [4]: significantly reduced | DNMT1 inhibition ([5]; MV4-11 (AML cell line) cells, different concentrations, FIG. 10): inhibits DNMT1 | GI50 [6]: 24 to 4300 nM | T/C [7]: 45% | anti-AML activity and survival ([1]; Aza-T-dCyd oral 1.5, 2.0 and 2.5 mg/kg, decitabine/azacytidine at standard preclinical dose/schedule): no therapeutic effect | complete blood count (WBC, RBC, Neutrophil, Platelet) ([1]; blood at Day 21, 36, 56, 77): all individuals died before blood samples were collected | toxicity [8]: showed toxicity after 2 cycles | p15 mRNA re-expression ([9]; 6 nM): 1.3 ± 0.27 fold increase from 0 nM | p15 mRNA re-expression ([9]; 20 nM): 1.7 ± 0.85 fold increase from 0 nM | p15 mRNA re-expression ([9]; 60 nM): 2.2 ± 0.52 fold increase from 0 nM | p15 mRNA re-expression ([9]; 200 nM): 4.3 ± 0.83 fold increase from 0 nM | tolerability above the maximum dose ([10]; above 0.75 mg/kg): animals died above this dose | tumor suppression ([10]; maximum dose 0.75 mg/kg): no tumor suppression | pattern of DNA demethylation [11]: genome-wide demethylation

SMILES: Nc1ncn(C2CC(O)C(COP(=O)(O)OP(=O)(O)OP(=O)(O)O)S2)c(=O)n1 (stereo not drawn) [aza-T-dCTP]
rate of degradation by cytidine deaminase [12]: slower rate of degradation by cytidine deaminase

DNMT1 inhibition ([5]; CCRF-CEM (ALL cell line) cells, FIG. 12): inhibits DNMT1 | DNMT1 inhibition ([5]; KG-1a (AML cell line) cells, FIG. 11): inhibits DNMT1 | DNMT1 inhibition ([5]; NCI-H23, HCT-116 and IGROV-1 cell lines, FIG. 13): inhibits DNMT1
SMILES: Nc1ccn([C@H]2C[C@H](O)[C@@H](CO)S2)c(=O)n1 [T-dCyd, reference compound]

Source: patent publication US12708630B2, “Combined therapy of 4′-thio-5-aza-2′-deoxycytidine and Venetoclax” (PINOTBIO, INC., priority 2021, dated 2026)
